Data published in the supplement of paper PMC11451515.

Test system: NOMO1
Experiment: cell viability relative to DMSO control; higher = less cytotoxic
Settings: 48 h
How it was run: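 Before seeding, each leukemia line was adapted for at least four passages in each medium. NOMO1 or SEM cells (500 cells/well) and P12-Ichikawa cells (1000 cells/well) went into 1536-well plates at 5 μl, then received library compounds in DMSO by pin dosing across 11 threefold concentrations, 47 μM to 0.79 nM. Readout was CellTiter-Glo One luminescence after 48 h at 37°C, and viability is given as a per-plate percentage of DMSO wells, with cell-free wells as background.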

[1] = HPLM + 10% dialyzed FBS, 0.000781 µM
[2] = HPLM + 10% dialyzed FBS, 0.00234 µM
[3] = HPLM + 10% dialyzed FBS, 0.00702 µM
[4] = HPLM + 10% dialyzed FBS, 0.0211 µM
[5] = HPLM + 10% dialyzed FBS, 0.0632 µM
[6] = HPLM + 10% dialyzed FBS, 0.19 µM
[7] = HPLM + 10% dialyzed FBS, 0.569 µM
[8] = HPLM + 10% dialyzed FBS, 1.71 µM
[9] = HPLM + 10% dialyzed FBS, 5.12 µM
[10] = HPLM + 10% dialyzed FBS, 15.4 µM
[11] = HPLM + 10% dialyzed FBS, 46.1 µM
[12] = RPMI 5 mM glucose + 10% FBS, 0.000781 µM
[13] = RPMI 5 mM glucose + 10% FBS, 0.00234 µM
[14] = RPMI 5 mM glucose + 10% FBS, 0.00702 µM
[15] = RPMI 5 mM glucose + 10% FBS, 0.0211 µM
[16] = RPMI 5 mM glucose + 10% FBS, 0.0632 µM
[17] = RPMI 5 mM glucose + 10% FBS, 0.19 µM
[18] = RPMI 5 mM glucose + 10% FBS, 0.569 µM
[19] = RPMI 5 mM glucose + 10% FBS, 1.71 µM
[20] = RPMI 5 mM glucose + 10% FBS, 5.12 µM
[21] = RPMI 5 mM glucose + 10% FBS, 15.4 µM
[22] = RPMI 5 mM glucose + 10% FBS, 46.1 µM
[23] = RPMI 5 mM glucose + 10% dialyzed FBS, 0.000781 µM
[24] = RPMI 5 mM glucose + 10% dialyzed FBS, 0.00234 µM
[25] = RPMI 5 mM glucose + 10% dialyzed FBS, 0.00702 µM
[26] = RPMI 5 mM glucose + 10% dialyzed FBS, 0.0211 µM
[27] = RPMI 5 mM glucose + 10% dialyzed FBS, 0.0632 µM
[28] = RPMI 5 mM glucose + 10% dialyzed FBS, 0.19 µM
[29] = RPMI 5 mM glucose + 10% dialyzed FBS, 0.569 µM
[30] = RPMI 5 mM glucose + 10% dialyzed FBS, 1.71 µM
[31] = RPMI 5 mM glucose + 10% dialyzed FBS, 5.12 µM
[32] = RPMI 5 mM glucose + 10% dialyzed FBS, 15.4 µM
[33] = RPMI 5 mM glucose + 10% dialyzed FBS, 46.1 µM

SMILES | cell viability [1] [%] | cell viability [2] [%] | cell viability [3] [%] | cell viability [4] [%] | cell viability [5] [%] | cell viability [6] [%] | cell viability [7] [%] | cell viability [8] [%] | cell viability [9] [%] | cell viability [10] [%] | cell viability [11] [%] | cell viability [12] [%] | cell viability [13] [%] | cell viability [14] [%] | cell viability [15] [%] | cell viability [16] [%] | cell viability [17] [%] | cell viability [18] [%] | cell viability [19] [%] | cell viability [20] [%] | cell viability [21] [%] | cell viability [22] [%] | cell viability [23] [%] | cell viability [24] [%] | cell viability [25] [%] | cell viability [26] [%] | cell viability [27] [%] | cell viability [28] [%] | cell viability [29] [%] | cell viability [30] [%] | cell viability [31] [%] | cell viability [32] [%] | cell viability [33] [%]
COc1cc2cc(c1Cl)N(C)C(=O)C[C@H](OC(=O)C(C)C)[C@]1(C)O[C@@H]1[C@H](C)[C@@H]1C[C@@](O)(NC(=O)O1)[C@H](OC)/C=C/C=C(\C)C2 | 55.5 | 53.1 | 53.3 | 44.3 | 49 | 41.8 | 42.1 | 41.8 | 34.9 | 35.7 | 13 | 32.8 | 29.5 | 33.7 | 30.8 | 27.3 | 23.5 | 24 | 19 | 22.4 | 26.4 | 9.73 | 37.2 | 40.4 | 36.2 | 32.1 | 22.9 | 22.2 | 25.4 | 22.4 | 25.9 | 27.8 | 11.8
CC(C)[C@H]1C(=O)N[C@H](CO)Cc2c[nH]c3cccc(c23)N1C | 104 | 98.3 | 106 | 111 | 125 | 128 | 112 | 75.8 | 50.6 | 47.2 | 45 | 96.2 | 103 | 112 | 104 | 111 | 119 | 99.7 | 77.7 | 67.9 | 51.1 | 46.7 | 81.7 | 94.4 | 93.2 | 93.2 | 97.5 | 120 | 100 | 69.5 | 71.1 | 56 | 47.4
CC(C)[C@]12O[C@H]1[C@@H]3O[C@@]34[C@@]5(C)CC\C6=C(COC6=O)/[C@@H]5C[C@@H]7O[C@]47[C@@H]2O | 118 | 7.83 | 7.37 | 6.84 | 8.16 | 7.58 | 7.57 | 6.99 | 6.9 | 3.84 | 2.95 | 107 | 6.29 | 7.04 | 6.27 | 7.93 | 7.51 | 6.66 | 6.58 | 5 | 4.13 | 1.89 | 106 | 5.9 | 5.75 | 5.32 | 6.01 | 6.39 | 5.39 | 5.08 | 4.8 | 3.96 | 2.22
CCCCCN(C)CCC(O)(P(=O)([O-])O)P(=O)(O)O | 68.4 | 81.8 | 89 | 101 | 85.3 | 92.9 | 89.5 | 92.4 | 86 | 80 | 94 | 81.1 | 88.8 | 89.5 | 96.7 | 97.3 | 99.9 | 97.9 | 94.4 | 95 | 84.8 | 81.7 | 84.6 | 87.3 | 86.1 | 80 | 93.7 | 101 | 96.5 | 90.8 | 85.2 | 94.1 | 75
COCCCC/C(=N\OCCN)c1ccc(C(F)(F)F)cc1 | 85.7 | 80.4 | 79.2 | 85.2 | 94.8 | 91.8 | 78.6 | 64.2 | 81.3 | 48.9 | 3.91 | 84.2 | 82 | 80.9 | 84.5 | 80.7 | 79.5 | 82 | 83 | 72.5 | 72.7 | 25.5 | 72.7 | 80.1 | 83.5 | 88.8 | 90.1 | 73.1 | 75.9 | 80 | 77.1 | 77.1 | 28.7
